14 compounds from PubChem BioAssay (NCI) can be followed below.

Among the test systems are SK-MEL-5 melanoma; A498 renal; MDA-N; UACC-257 melanoma; BT-549 breast; MDA-MB-435; SK-MEL-2 melanoma; DU-145 prostate; CAKI-1 renal; MALME-3M melanoma.
Test in all cases: growth of human tumour cells (NCI), 48 h

Each structure is given as a SMILES string.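 Briefly, cells in 96-well plates were exposed to five compound concentrations for 48 h, and endpoints were estimated by linear interpolation. TGI denotes the concentration required for complete inhibition of growth.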 Bounds are passed on as bounds.

In the case of `CC1=CCC(=O)[C@]2(C)C(CC(=O)O)[C@]3(C)C4=C(C)C(c5ccoc5)C[C@@H]4O[C@@H]3[C@H](O)[C@@H]12` (stereo not given in full), the TGI in the assay on SK-MEL-5 melanoma, in the assay on A498 renal, with MDA-N, with UACC-257 melanoma, in the assay on BT-549 breast and with MDA-MB-435 was more than 100 µM in each case. The TGI with SK-MEL-2 melanoma, in the assay with DU-145 prostate, in the assay on CAKI-1 renal and in the assay on MALME-3M melanoma was more than 100 µM each time.
As for `O=C(N(C1=CCCC1)N(c1ccccc1)c1ccccc1)C(F)(F)F`, the TGI with SK-MEL-5 melanoma is 35.6 µM; in the assay on A498 renal, more than 100 µM; in the assay with MDA-N it was 65.8 µM; in the assay on UACC-257 melanoma, 58.9 µM; with BT-549 breast it was 94.8 µM; in the assay on MDA-MB-435, 50.4 µM. Besides, the TGI came out at 35 µM with SK-MEL-2 melanoma, 81.5 µM with DU-145 prostate, 80.4 µM in the assay on CAKI-1 renal and 14.4 µM in the assay with MALME-3M melanoma.
`COc1ccc2c(-c3csc(-c4c[nH]c5ccccc45)n3)c[nH]c2c1`: the TGI is 30.6 µM in the assay on SK-MEL-5 melanoma; 21.6 µM with A498 renal; more than 100 µM in the assay with MDA-N; more than 90.6 µM in the assay with UACC-257 melanoma; more than 100 µM in the assay on BT-549 breast; more than 100 µM in the assay on MDA-MB-435. Besides, the TGI is more than 86.2 µM in the assay on SK-MEL-2 melanoma, more than 44.8 µM in the assay with DU-145 prostate, 32.8 µM with CAKI-1 renal and 32.1 µM in the assay with MALME-3M melanoma.
Consider `O=C(c1cccs1)N(C(=O)N1CCCCC1)c1ccccc1`, for which the TGI with SK-MEL-5 melanoma, in the assay with A498 renal, in the assay with MDA-N, with UACC-257 melanoma, in the assay with BT-549 breast and in the assay with MDA-MB-435 was more than 100 µM in each case. For the same compound, the TGI with SK-MEL-2 melanoma, in the assay with DU-145 prostate, in the assay with CAKI-1 renal and in the assay with MALME-3M melanoma was more than 100 µM in each case.
On to `COc1cc(C)c(S(=O)(=O)N(CCCN)OCCCN)c(C)c1C`, for which the TGI with SK-MEL-5 melanoma is 53 µM; in the assay on A498 renal it was more than 100 µM; with MDA-N it was more than 100 µM; in the assay with UACC-257 melanoma, 62.3 µM; in the assay with BT-549 breast, 66.5 µM; with MDA-MB-435 it was more than 100 µM. Moreover, the TGI is 51.5 µM in the assay with SK-MEL-2 melanoma, more than 100 µM in the assay with DU-145 prostate, more than 100 µM in the assay with CAKI-1 renal and 42.8 µM in the assay with MALME-3M melanoma.
Take `CO/C=C(/C(=O)OC)c1ccccc1[C@H]1C[C@@H]1c1ccccc1`: the TGI was 20.8 µM with SK-MEL-5 melanoma; 87.2 µM with A498 renal; 71.9 µM with MDA-N; 41.3 µM in the assay on UACC-257 melanoma; 52.2 µM in the assay with BT-549 breast; 43.3 µM with MDA-MB-435. Besides, the TGI is 34.8 µM in the assay with SK-MEL-2 melanoma, more than 100 µM in the assay on DU-145 prostate, 52.6 µM in the assay on CAKI-1 renal and 41.3 µM in the assay with MALME-3M melanoma.
As to `CC(=O)OCC12C(OC(C)=O)C[C@@H](C)C3(CC(c4ccoc4)OC3=O)C1CCC(OC(C)=O)C21CO1` (stereo not given in full), the TGI in the assay on SK-MEL-5 melanoma, in the assay on A498 renal, with MDA-N, in the assay with UACC-257 melanoma, in the assay with BT-549 breast and in the assay with MDA-MB-435 was more than 100 µM throughout. Further, the TGI in the assay with SK-MEL-2 melanoma, in the assay with DU-145 prostate, with CAKI-1 renal and with MALME-3M melanoma was more than 100 µM in each case.
For `NS(=O)(=O)c1ccc(NS(=O)(=O)c2ccc(NC(=O)N(c3ccccc3)c3ccccc3)cc2)cc1`, the TGI in the assay with SK-MEL-5 melanoma is more than 100 µM; in the assay on A498 renal, more than 100 µM; in the assay on MDA-N it was more than 100 µM; with UACC-257 melanoma, more than 100 µM; in the assay with BT-549 breast it was more than 100 µM; in the assay with MDA-MB-435 it was 77 µM. The TGI in the assay on SK-MEL-2 melanoma, in the assay with DU-145 prostate, with CAKI-1 renal and with MALME-3M melanoma was more than 100 µM each time.
On to `N#Cc1c(NC(=S)Nc2ccccc2)sc2c1CCCC2`, for which the TGI in the assay on SK-MEL-5 melanoma, in the assay on A498 renal, with MDA-N, in the assay with UACC-257 melanoma, with BT-549 breast and with MDA-MB-435 was more than 100 µM each time. Moreover, the TGI in the assay with SK-MEL-2 melanoma, in the assay on DU-145 prostate, in the assay with CAKI-1 renal and with MALME-3M melanoma was more than 100 µM in each case.
Consider `O=C1CSC(c2cc3cc(Br)ccc3nc2Cl)N1c1ccc(F)c(Cl)c1` (stereo not given), for which the TGI with SK-MEL-5 melanoma, in the assay with A498 renal, with MDA-N, with UACC-257 melanoma, in the assay on BT-549 breast and in the assay with MDA-MB-435 was more than 50 µM each time. Moreover, the TGI in the assay with SK-MEL-2 melanoma, with DU-145 prostate, in the assay with CAKI-1 renal and in the assay with MALME-3M melanoma was more than 50 µM each time.
As to `CCOC(=O)CCC1(C(=O)O[C@@H]2C[C@H](C)CC[C@H]2C(C)C)CCCCC1=O` (stereo not given in full), the TGI in the assay with SK-MEL-5 melanoma was more than 100 µM; in the assay on A498 renal, more than 100 µM; with MDA-N, more than 100 µM; in the assay with UACC-257 melanoma it was 60 µM; in the assay with BT-549 breast, more than 100 µM; in the assay with MDA-MB-435 it was more than 100 µM. Moreover, the TGI in the assay on SK-MEL-2 melanoma, in the assay on DU-145 prostate, with CAKI-1 renal and in the assay on MALME-3M melanoma was more than 100 µM each time.
As for `CCN(CC)CCC1(C(=O)OC)SCCc2ccc(C)cc21` (stereo not given), the TGI in the assay with SK-MEL-5 melanoma, in the assay on A498 renal, in the assay on MDA-N, in the assay on UACC-257 melanoma, with BT-549 breast and with MDA-MB-435 was more than 100 µM each time. For the same compound, the TGI with SK-MEL-2 melanoma, with DU-145 prostate, in the assay on CAKI-1 renal and in the assay on MALME-3M melanoma was more than 100 µM throughout.
For `CC(=O)c1c2c(cc3c1CCC3)CCC2`, the TGI in the assay on SK-MEL-5 melanoma, in the assay with A498 renal, in the assay with MDA-N, in the assay on UACC-257 melanoma, in the assay with BT-549 breast and with MDA-MB-435 was more than 100 µM in each case. In addition, the TGI in the assay on SK-MEL-2 melanoma, with DU-145 prostate, with CAKI-1 renal and with MALME-3M melanoma was more than 100 µM throughout.
On to `CC(=O)O[C@H]1CC[C@]2(C=O)[C@H]3CC[C@]4(C)[C@@H](C5=CC(=O)OC5)CC[C@]4(O)[C@@H]3CC[C@]2(O)C1`, for which the TGI in the assay with SK-MEL-5 melanoma was 0.473 µM; in the assay on A498 renal it was 1.16 µM; in the assay on MDA-N it was 0.97 µM; in the assay on UACC-257 melanoma, 1.63 µM; in the assay on BT-549 breast, 0.575 µM; with MDA-MB-435 it was 0.984 µM. Moreover, the TGI in the assay on SK-MEL-2 melanoma stood at 1.08 µM; in the assay on DU-145 prostate, 0.391 µM; in the assay with CAKI-1 renal, 0.06 µM; in the assay on MALME-3M melanoma, 0.566 µM.
